The values that follow come from ChEMBL document CHEMBL1147814, “Discovery of SB-705498: a potent, selective and orally bioavailable TRPV1 antagonist suitable for clinical development” (Bioorg Med Chem Lett, 2006).

≈ marks a conversion by molar mass, not a printed value. Calls of active or inactive are those of the source. No cut-off for these calls is given here. Some results are limits rather than exact numbers.

In series [1] the target is Transient receptor potential cation channel subfamily V member 1 (Rattus norvegicus) (UniProt O35433). The series can be described thus: Antagonist activity against capsaicin-mediated activation of rat TRPV1 by FLIPR. The class given is functional.
Series [2] in a line: Aqueous solubility of the compound. The class given is physicochemical.
For series [3], the system named is Liver microsomes. The series can be described thus: (§1) Intrinsic clearance in human liver microsomes. Type of series: ADME, Microsome. Conditions: microsomes. (In general: Liver microsomes are a subcellular fraction often used to study metabolism.)
For series [4], the species on record is Canis familiaris. The series can be described thus: Intrinsic clearance in dog liver microsomes. The class given is ADME, Canis lupus familiaris, Microsome.
Series [5] concerns the target Transient receptor potential cation channel subfamily V member 1 (Homo sapiens) (UniProt Q8NER1). The series can be described thus: Inhibition of capsaicin-mediated activation of human TRPV1 in HEK293 cells at 1 uM by patch clamp method. Type of series: functional, cell-based.
Series [6] can be described thus: Clearance in guinea pig. The class given is ADME, organism-based, Cavia porcellus. Conditions: in vivo.
Series [7] can be described thus: Half life in rat. Conditions: in vivo. Type of series: ADME, organism-based.
Series [8] deals with Transient receptor potential cation channel subfamily V member 1 (Homo sapiens) (UniProt Q8NER1). The series can be described thus: Blockade of pH activated human TRPV1 at 1 uM. Type of series: functional.
Series [9] can be described thus: Volume of distribution in dog. Particulars: in vivo, read-out: Vdss. Type of series: ADME, organism-based, Canis lupus familiaris.
The nature of series [10]: Bioavailability in rat at 3 mg/kg, po. The class given is ADME, organism-based. Particulars: in vivo.
The nature of series [11]: Half life in guinea pig. Conditions: in vivo. Type of series: ADME, organism-based, Cavia porcellus.
The target of series [12] is Transient receptor potential cation channel subfamily V member 1 (Rattus norvegicus) (UniProt O35433). The series can be described thus: Activity against capsaicin-induced secondary hyperalgesia assessed as reversal of allodynia in rat at 10 mg/kg, po after 2 hrs. Type of series: functional, organism-based. On the set-up: dose 10 mg/kg.
Series [13] can be described thus: Clearance in rat. The class given is ADME, organism-based. Particulars: in vivo.
Series [14] is described as follows: Bioavailability in dog at 3 mg/kg, po. Type of series: ADME, organism-based, Canis lupus familiaris. Conditions: in vivo.
For series [15], the species on record is Cavia porcellus. Briefly: Intrinsic clearance in guinea pig liver microsomes. Type of series: ADME, Microsome.
Series [16] can be described thus: Half life in dog. The class given is ADME, organism-based, Canis lupus familiaris. Particulars: in vivo.
The nature of series [17]: Volume of distribution in guinea pig. The class given is ADME, organism-based, Cavia porcellus. Particulars: in vivo, read-out: Vdss.
Series [18] in a line: Clearance in dog. The class given is ADME, organism-based, Canis lupus familiaris. Particulars: in vivo.
Series [19] is described as follows: Volume of distribution in rat. Type of series: ADME, organism-based. Particulars: in vivo, read-out: Vdss.
Series [20] deals with Transient receptor potential cation channel subfamily V member 1 (Rattus norvegicus) (UniProt O35433). Briefly: Activity against capsaicin-induced secondary hyperalgesia assessed as reversal of allodynia in rat at 30 mg/kg, po after 2 hrs. The class given is functional, organism-based. Also on record: dose 30 mg/kg.
Series [21] can be described thus: Bioavailability in guinea pig at 1 mg/kg, po. The class given is ADME, organism-based, Cavia porcellus. Particulars: in vivo.
The nature of series [22]: Solubility in stimulated gastric fluid. Particulars: simulated gastric fluid. The class given is physicochemical.
Series [23] concerns the target Transient receptor potential cation channel subfamily V member 1 (Cavia porcellus) (UniProt Q6R5A3). Briefly: Antagonist activity against capsaicin-mediated activation of guinea pig TRPV1 by FLIPR. The class given is functional.
Series [24] concerns the target Transient receptor potential cation channel subfamily V member 1 (Homo sapiens) (UniProt Q8NER1). Briefly: Blockade of heat activated human TRPV1 at 1 uM. The class given is functional.
Series [25] has as its target Transient receptor potential cation channel subfamily V member 1 (Cavia porcellus) (UniProt Q6R5A3). The series can be described thus: Activity against adjuvant-induced arthritis assessed as reversal of allodynia in guinea pig at 10 mg/kg, po. The class given is functional, organism-based. Also on record: dose 10 mg/kg.
Series [26] in a line: as §1. The class given is ADME, Microsome. Conditions: liver microsomes.
Series [27] concerns the target Transient receptor potential cation channel subfamily V member 1 (Homo sapiens) (UniProt Q8NER1). The series can be described thus: Inhibition of heat-mediated activation of human TRPV1 in HEK293 cells at 1 uM by patch clamp method.

Transient receptor potential cation channel subfamily V member 1 (Homo sapiens), sequence (Q8NER1 whole entry): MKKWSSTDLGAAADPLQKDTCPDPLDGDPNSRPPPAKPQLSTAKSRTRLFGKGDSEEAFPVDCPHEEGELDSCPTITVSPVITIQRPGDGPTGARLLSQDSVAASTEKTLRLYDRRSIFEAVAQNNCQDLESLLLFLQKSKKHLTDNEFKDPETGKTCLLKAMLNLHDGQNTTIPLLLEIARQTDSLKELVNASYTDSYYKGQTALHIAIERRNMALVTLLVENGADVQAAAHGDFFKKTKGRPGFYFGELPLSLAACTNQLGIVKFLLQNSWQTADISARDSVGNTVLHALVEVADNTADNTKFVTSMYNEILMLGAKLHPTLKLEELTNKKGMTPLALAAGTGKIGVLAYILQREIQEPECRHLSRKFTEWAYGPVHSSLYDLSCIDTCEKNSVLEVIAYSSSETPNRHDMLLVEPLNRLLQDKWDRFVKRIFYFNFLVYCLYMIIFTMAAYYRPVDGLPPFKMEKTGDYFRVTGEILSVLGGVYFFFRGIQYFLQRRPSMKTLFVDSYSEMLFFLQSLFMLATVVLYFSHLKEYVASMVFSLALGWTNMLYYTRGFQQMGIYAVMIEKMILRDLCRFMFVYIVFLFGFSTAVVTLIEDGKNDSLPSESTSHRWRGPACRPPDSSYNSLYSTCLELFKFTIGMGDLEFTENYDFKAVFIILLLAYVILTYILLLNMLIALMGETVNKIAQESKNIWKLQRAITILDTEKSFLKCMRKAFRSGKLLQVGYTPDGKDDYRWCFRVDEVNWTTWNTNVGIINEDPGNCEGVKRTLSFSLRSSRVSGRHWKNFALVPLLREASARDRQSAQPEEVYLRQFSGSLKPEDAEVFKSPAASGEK
Transient receptor potential cation channel subfamily V member 1 (Rattus norvegicus), sequence (O35433 whole entry): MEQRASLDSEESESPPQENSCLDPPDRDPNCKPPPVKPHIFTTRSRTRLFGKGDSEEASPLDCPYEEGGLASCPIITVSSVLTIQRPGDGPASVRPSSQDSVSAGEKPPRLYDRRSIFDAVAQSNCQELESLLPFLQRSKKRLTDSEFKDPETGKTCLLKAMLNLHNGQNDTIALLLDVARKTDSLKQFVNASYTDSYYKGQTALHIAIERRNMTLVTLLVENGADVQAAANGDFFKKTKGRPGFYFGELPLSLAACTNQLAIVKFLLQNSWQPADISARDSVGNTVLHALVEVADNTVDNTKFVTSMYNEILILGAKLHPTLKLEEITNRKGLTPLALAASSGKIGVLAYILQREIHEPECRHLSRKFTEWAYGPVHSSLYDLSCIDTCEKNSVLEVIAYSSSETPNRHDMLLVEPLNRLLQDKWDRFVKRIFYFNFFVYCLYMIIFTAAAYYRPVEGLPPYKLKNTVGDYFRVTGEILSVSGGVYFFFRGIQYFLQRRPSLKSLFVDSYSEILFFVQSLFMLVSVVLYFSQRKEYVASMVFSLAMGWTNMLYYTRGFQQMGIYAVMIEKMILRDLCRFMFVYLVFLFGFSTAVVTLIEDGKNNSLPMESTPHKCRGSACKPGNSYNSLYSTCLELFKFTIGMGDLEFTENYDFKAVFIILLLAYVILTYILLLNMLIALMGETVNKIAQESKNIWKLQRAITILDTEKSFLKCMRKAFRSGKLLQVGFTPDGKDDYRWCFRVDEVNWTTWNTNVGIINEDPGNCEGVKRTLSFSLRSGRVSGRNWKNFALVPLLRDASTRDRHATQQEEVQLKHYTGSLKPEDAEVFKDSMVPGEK
Transient receptor potential cation channel subfamily V member 1 (Cavia porcellus), sequence (Q6R5A3 whole entry): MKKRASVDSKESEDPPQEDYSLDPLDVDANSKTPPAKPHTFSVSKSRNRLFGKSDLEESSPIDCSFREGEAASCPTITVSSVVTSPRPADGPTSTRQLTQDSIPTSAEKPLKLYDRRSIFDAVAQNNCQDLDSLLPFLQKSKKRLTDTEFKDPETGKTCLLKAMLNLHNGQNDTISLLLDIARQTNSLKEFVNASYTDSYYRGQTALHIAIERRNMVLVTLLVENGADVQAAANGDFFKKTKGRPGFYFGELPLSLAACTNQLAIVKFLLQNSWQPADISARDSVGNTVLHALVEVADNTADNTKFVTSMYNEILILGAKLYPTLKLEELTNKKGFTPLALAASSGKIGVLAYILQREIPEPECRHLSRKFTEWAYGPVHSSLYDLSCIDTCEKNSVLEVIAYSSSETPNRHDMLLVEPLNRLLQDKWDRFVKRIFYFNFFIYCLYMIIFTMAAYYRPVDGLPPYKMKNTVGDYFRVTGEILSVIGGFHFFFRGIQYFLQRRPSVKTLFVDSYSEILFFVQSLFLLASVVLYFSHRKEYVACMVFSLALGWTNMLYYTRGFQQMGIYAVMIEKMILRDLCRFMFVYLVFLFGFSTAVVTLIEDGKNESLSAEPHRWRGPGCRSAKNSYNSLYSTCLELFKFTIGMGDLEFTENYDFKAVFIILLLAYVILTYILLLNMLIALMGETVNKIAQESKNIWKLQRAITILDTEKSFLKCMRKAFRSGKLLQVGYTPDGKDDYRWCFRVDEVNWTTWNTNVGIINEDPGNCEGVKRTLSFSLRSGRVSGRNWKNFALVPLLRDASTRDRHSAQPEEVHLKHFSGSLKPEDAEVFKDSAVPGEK

Regarding `O=C(NCCN1CCc2ccccc21)Nc1ccccc1Br`, the pKb in series [1] came out at 6.8.

For the compound `O=C(NCCN1CCc2c(F)cccc21)Nc1ccccc1Br`, the pKb in [1] worked out at 7.4.

`O=C(Nc1ccccc1Br)N[C@@H]1CCN(c2cccc(C(F)(F)F)n2)C1` showed a negative logarithm of the Kb (pKb) in [1] of 7.2.

Take `O=C(Nc1ccccc1Br)N[C@@H]1CCN(c2cc(C(F)(F)F)ccn2)C1`: the pKb in series [1] turned out to be 6.9.

In turn, `Cc1ccc(N2CC[C@@H](NC(=O)Nc3ccccc3Br)C2)cc1F` showed a solubility in series [2] of less than 100 µg/mL. This compound showed a pKb in [1] of 8.3. For the same compound, the CL result in series [3] is “<= 4 ml/min/g”.

For `O=C(Nc1ccccc1Br)N[C@@H]1CCN(c2ccc(C(F)(F)F)cn2)C1` [SB-705498], the CL stood at 0.9 mL/min/g in [4] and 4.2 mL/min/g in series [15]. Moreover, in series [5], the inhibition is 102%. Also, the figures for the clearance in [6], in [13] and in series [18] were 34 mL/min/kg, 4 mL/min/kg and 11 mL/min/kg, respectively. Besides, the half-life is 3.1 h in series [7], 2.6 h in [11] and 3.4 h in series [16]. Moreover, the Activity in series [8] was found to be 104%; in series [24], 97%; in series [25] it was 80%. In addition, the Vd in series [9] was found to be 1.9 L/kg; in series [17], 3.6 L/kg; in [19], 0.9 L/kg. The results for the bioavailability in [10], in [14] and in series [21] were 86%, 42% and 39%, respectively. The outcome in [12] and in series [20] was Active. Also, the pKb stood at 7.5 in [1] and 7.3 in series [23]. The compound further yielded a solubility in series [22] of 400 µg/mL (≈ 932 µM).

In series [1], `O=C(NCCN1CCc2cc(F)ccc21)Nc1ccccc1Br` returned a pKb of 7.1. Also, the intrinsic metabolic clearance (CLint scaled) in [26] amounted to 19 mL/min/kg.

As to `O=C(Nc1ccccc1Br)N[C@@H]1CCN(c2cccc(F)c2)C1`, the solubility in [2] is less than 100 µg/mL. In series [1], this compound showed a pKb of 7.8. For the same compound, the CL entry in [3] is reported as “<= 4 ml/min/g”.

For the compound `O=C(Nc1ccccc1Br)N[C@@H]1CCN(c2ccc(F)c(F)c2)C1`, the solubility in series [2] is less than 100 µg/mL. The pKb in series [1] is 8.1. Moreover, the CL entry in series [3] is “<= 4 ml/min/g”.

Regarding `Cc1ccc2c(c1)CCCN2CCNC(=O)Nc1ccccc1Br`, the negative logarithm of the Kb (pKb) in series [1] came out at 7.4. Further, in series [26], the intrinsic metabolic clearance (CLint scaled) was greater than 45 mL/min/kg.

Turning to `Cc1cccc(N2CC[C@@H](NC(=O)Nc3ccccc3Br)C2)c1`, the result in [27], in series [8] and in [24] was Active. Further, the solubility in series [2] is less than 100 µg/mL. Further, in [1], the negative-log Kb (pKb) was found to be 7.7. The CL entry in series [3] was “<= 4 ml/min/g”.

As to `O=C(Nc1ccccc1Br)N[C@@H]1CCN(c2ccccn2)C1`, the pKb in series [1] was less than 6.6.

For `Cc1ccc2c(c1)CCN2CCNC(=O)Nc1ccccc1Br`, the pKb in series [1] was 7.3.

In the case of `O=C(Nc1ccccc1Br)N[C@@H]1CCN(c2ccc(Br)cn2)C1`, the negative logarithm of the Kb (pKb) in series [1] was 7.2.

In turn, `CCN(CCNC(=O)Nc1ccccc1Br)c1cccc(C)c1` registered a pKb in series [1] of 7.8. In series [26], this compound displayed an intrinsic metabolic clearance (CLint scaled) of 41 mL/min/kg.

In the case of `O=C(Nc1ccccc1Br)N[C@@H]1CCN(c2ccc(Cl)cn2)C1`, the pKb in [1] was determined as 7.3.

Turning to `N#Cc1ccc(N2CC[C@@H](NC(=O)Nc3ccccc3Br)C2)nc1`, the negative logarithm of the Kb (pKb) in series [1] was determined as 6.7.

Consider `Cc1ccc(N2CC[C@@H](NC(=O)Nc3ccccc3Br)C2)nc1`, for which, in series [1], the pKb is less than 6.7.

For `Cc1cccc(N2CC[C@H](NC(=O)Nc3ccccc3Br)C2)c1`, the pKb in [1] is less than 6.8.

The compound `O=C(Nc1ccccc1Br)N[C@@H]1CCN(c2ncccc2C(F)(F)F)C1` returned a negative logarithm of the Kb (pKb) in [1] of 7.1.

As for `Cc1cccc2c1CCN2CCNC(=O)Nc1ccccc1Br`, in [1], the pKb came out at 7.4.

As a reminder, the pKb is the negative decadic logarithm of the Kb, by convention in mol/L. Higher therefore signals a small Kb. By solubility is commonly meant the dissolved amount per volume that the medium holds. A higher solubility goes with a readily soluble substance. For orientation: inhibition means the drop in the measured response relative to a control, in per cent. What is called clearance is the volume of plasma or blood freed of the substance per unit of time. In general, half-life refers to the time in which the quantity being followed falls by half. Lower therefore signals rapid decline. A word on the bioavailability: it is dose-corrected exposure relative to a reference, in per cent. High values mean much systemic uptake, low ones little systemic uptake. For orientation: CLint scaled means the capacity of the preparation to metabolise the compound, expressed as a volume cleared per time.
